Measurements taken from patent publication US11897898B2, “Pyridine macrocycle compounds as ASK1 inhibiting agents” (BIOGEN MA INC., priority 2018, dated 2024).

Tests used:
[1] = target: T1, ASK1 T838 auto phosphorylation (Homo sapiens, UniProt Q99683); assay: ASK1 (AUTO PHOS T838) assay in HEK-293T cells, MSD format; type: cell-based; conditions: HEK-293T cells transfected with ASK1-V5, 1 hr compound incubation; class symbols
T1 construct: ASK1-V5 tagged full length plasmid; expressed in transfected cells; host or cells: HEK-293T
T1 sequence (Q99683 1-1374): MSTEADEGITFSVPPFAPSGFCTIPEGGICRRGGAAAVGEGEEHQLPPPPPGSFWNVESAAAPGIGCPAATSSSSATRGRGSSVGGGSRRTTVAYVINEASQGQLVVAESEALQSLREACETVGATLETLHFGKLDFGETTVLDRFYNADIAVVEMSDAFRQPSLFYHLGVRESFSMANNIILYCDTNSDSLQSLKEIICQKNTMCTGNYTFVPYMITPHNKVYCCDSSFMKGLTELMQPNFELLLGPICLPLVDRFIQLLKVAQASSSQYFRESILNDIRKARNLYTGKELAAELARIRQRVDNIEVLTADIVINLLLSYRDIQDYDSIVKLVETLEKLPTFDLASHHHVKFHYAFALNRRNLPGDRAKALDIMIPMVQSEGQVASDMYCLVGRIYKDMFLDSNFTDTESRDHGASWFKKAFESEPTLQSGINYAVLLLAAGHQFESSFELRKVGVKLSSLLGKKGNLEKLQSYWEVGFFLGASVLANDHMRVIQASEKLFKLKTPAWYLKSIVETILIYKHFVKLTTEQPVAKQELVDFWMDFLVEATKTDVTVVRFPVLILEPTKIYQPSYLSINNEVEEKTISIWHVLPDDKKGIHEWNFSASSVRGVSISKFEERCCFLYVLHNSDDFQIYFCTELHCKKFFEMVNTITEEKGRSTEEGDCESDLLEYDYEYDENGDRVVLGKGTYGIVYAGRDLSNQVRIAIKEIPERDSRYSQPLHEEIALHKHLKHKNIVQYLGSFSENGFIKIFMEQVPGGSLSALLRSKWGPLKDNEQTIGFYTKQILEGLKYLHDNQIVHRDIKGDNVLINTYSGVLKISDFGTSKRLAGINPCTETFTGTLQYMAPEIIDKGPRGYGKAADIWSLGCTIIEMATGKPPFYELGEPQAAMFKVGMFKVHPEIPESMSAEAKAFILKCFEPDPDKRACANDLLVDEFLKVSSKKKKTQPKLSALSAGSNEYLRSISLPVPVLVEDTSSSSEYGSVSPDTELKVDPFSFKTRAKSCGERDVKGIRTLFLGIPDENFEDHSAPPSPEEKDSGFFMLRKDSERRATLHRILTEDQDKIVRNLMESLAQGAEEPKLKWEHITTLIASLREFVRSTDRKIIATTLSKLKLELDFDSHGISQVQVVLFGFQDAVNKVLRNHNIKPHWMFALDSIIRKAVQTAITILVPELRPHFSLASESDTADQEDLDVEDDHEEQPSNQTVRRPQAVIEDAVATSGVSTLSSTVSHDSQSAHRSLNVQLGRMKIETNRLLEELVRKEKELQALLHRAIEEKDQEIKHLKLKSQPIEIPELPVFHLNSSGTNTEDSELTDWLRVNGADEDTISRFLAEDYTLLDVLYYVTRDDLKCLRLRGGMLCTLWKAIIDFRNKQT
Method: ASK1 T838 auto phosphorylation was measured in HEK-293T cells using MSD assay format. HEK 293T cells were seeded in 15 cm plates at a density of 18 million cells and 20 mL DMEM with 10% FBS, Pen/Strep media. The plates were incubated at 37° C. overnight. Media on plates was changed to OPTI-MEM, serum free media and cells were transfected with 9 μg of ASK1-V5 tagged full length plasmid using Lipofectamine 2000 (Invitrogen) and the plates were incubated at 37° C. overnight. Cells were trypsinized, counted on Nexcellometer and plated into 96 well tissue culture plates with 100,000 cells/well and 200 μL media. Cells were incubated for 4 hr at 37° C. then ASK1 compounds were added using a HP 300e. Compounds were tested at 20 μM with 3 fold, 10 point dilution points then incubated for 1 hr at 37° C. A lysis buffer (Cell Signaling) was prepared with protease and phosphatase inhibitor and maintained at 4° C. until use. Media from cells was discarded and 120 μL of cold lysis buffer was added to the cells, the plate was shaken 4° C. for 1 hr. Lysate was mixed using Apricot liquid handler; aspirating up and down 16 times at high speed using 50 μL volume. 50 μL of cell lysates were transferred to a pre-coated MSD plates containing mouse anti-V5 antibody (1:500 dilution) and washed 3× with MSD wash buffer (TBST) and blocked with a 3% BSA solution. Plates were then incubated on a plate shaker overnight at 4° C. Plates were washed 3× with MSD wash buffer and 50 μL of rabbit anti-pASK1 T838 antibody was added to the wells and incubated for 2 hr at room temperature on a plate shaker. Plates were then washed and 50 μL of goat anti-rabbit sulfa-tag (1:500 dilution) was added to wells, and incubated for 1 hr at room temperature on a plate shaker. Plates were washed 3× and 150 μL of 2×MSD Read buffer was added to wells. Plates were immediately read on a MSD Instrument Reader where chemoluminecense signal was measured. Data was analyzed using Graph Pad or Genedata, the data was normalized and plotted, % activity versus log of compound concentration. The IC50 values were obtained from a 4 parameter fit.

ASK1/MAP3K5 = target: T2, ASK1/MAP3K5 (Homo sapiens, UniProt Q99683); assay: ASK1 enzyme assay (ASK1/MAP3K5 assay by Reaction Biology Corp., 33P-ATP filter-binding); type: biochemical; conditions: 20 μM myelin basic protein and 10 μM ATP; class symbols
T2 construct: purchased Reaction Biology Corp. (Malvern, Pa.)
T2 sequence (Q99683 1-1374): T1 sequence (Q99683 1-1374)
Method: The protein kinase inhibitory activity of the compounds described herein were tested using the ASK1/MAP3K5 assay by Reaction Biology Corp. (Malvern, Pa.). The assay procedure follows (and is also available on the Reaction Biology Corp. website). • Base Reaction Buffer: 20 mM Hepes (pH 7.5), 10 mM MgCl2, 1 mM EGTA, • 0.02% Brij35, 0.02 mg/mL BSA, 0.1 mM Na3VO4, 2 mM DTT, 1% DMSO; • Substrate: 20 μM of myelin basic protein (MBP) and 10 μM ATP; • Protein kinase: ASK1/MAP3K5. • Reaction Procedure: • 1. Prepare indicated substrate in freshly prepared Base Reaction Buffer. • 2. Deliver any required cofactors to the substrate solution. • 3. Deliver indicated kinase into the substrate solution and gently mix. • 4. Deliver compounds in DMSO into the kinase reaction mixture by Acoustic; technology (Echo550; nanoliter range), incubate for 20 minutes at room temperature. • 5. Deliver ^33P-ATP (specific activity 10 μCi/μL) into the reaction mixture to initiate the reaction. • 6. Incubate kinase reaction for 2 hours at room temperature. • 7. Reactions are spotted onto P81 ion exchange paper. • 8. Detect kinase activity by filter-binding method.

| SMILES | IC50 [1] [nM] | IC50 (ASK1/MAP3K5) [nM] |
| --- | --- | --- |
| C[C@@H]1CN(c2cnc3c(c2)C(=O)Nc2cccc(n2)-c2nncn2[C@@H](C)CCCO3)CCN1C (single isomer, unassigned) [Compound 12] | ≤ 100 | ≤ 100 |
| C[C@H]1CCCOc2ncc(C3CC3)cc2C(=O)Nc2cccc(n2)-c2nncn21 [Compound 36, (S)-5^5-Cyclopropyl-10-methyl-1^4H-6-oxa-3-aza-2(2,6),5(3,2)-dipyridina-1(3,4)-triazolacyclodecaphan-4-one] | 100 to 1000 | – |
| C[C@H]1CCCOc2ncc(-c3cnn(CCN(C)C)c3)cc2C(=O)Nc2cccc(n2)-c2nncn21 [Compound 25, (S)-5^5-(1-(2-(Dimethylamino)ethyl)-1H-pyrazol-4-yl)-10-methyl-1^4H-6-oxa-3-aza-2(2,6),5(3,2)-dipyridina-1(3,4)-triazolacyclodecaphan-4-one] | ≤ 100 | ≤ 100 |
| CC1CCCOc2ncccc2C(=O)Nc2cccc(n2)-c2nncn21 (stereo not drawn) [Compound 3, 10-Methyl-1^4H-6-oxa-3-aza-2(2,6),5(3,2)-dipyridina-1(3,4)-triazolacyclodecaphan-4-one] | 100 to 1000 | ≤ 100 |
| C[C@H]1CN(c2cnc3c(c2)C(=O)Nc2cccc(n2)-c2nncn2[C@@H](C)CCCO3)CCN1C (single isomer, unassigned) [Compound 13] | 100 to 1000 | ≤ 100 |
| Cc1cn(-c2cnc3c(c2)C(=O)Nc2cccc(n2)-c2nncn2[C@@H](C)CCCO3)cn1 (single isomer, unassigned) [Compound 30] | ≤ 100 | ≤ 100 |
| C[C@@H]1CCCOc2ncc(N3CCOCC3)cc2C(=O)Nc2cccc(n2)-c2nncn21 [Compound 6, (R)-10-Methyl-5^5-morpholino-1^4H-6-oxa-3-aza-2(2,6),5(3,2)-dipyridina-1(3,4)-triazolacyclodecaphan-4-one] | 1000 to 10000 | – |
| C[C@H]1CCCOc2ncc(C#CC3CC3)cc2C(=O)Nc2cccc(n2)-c2nncn21 [Compound 35, (S)-5^5-(Cyclopropylethynyl)-10-methyl-1^4H-6-oxa-3-aza-2(2,6),5(3,2)-dipyridina-1(3,4)-triazolacyclodecaphan-4-one] | 100 to 1000 | – |
| Cc1cnn(-c2cnc3c(c2)C(=O)Nc2cccc(n2)-c2nncn2[C@@H](C)CCCO3)c1 [Compound 27, (S)-10-Methyl-5^5-(4-methyl-1H-pyrazol-1-yl)-1^4H-6-oxa-3-aza-2(2,6),5(3,2)-dipyridina-1(3,4)-triazolacyclodecaphan-4-one] | 100 to 1000 | – |
| C[C@H]1CCCOc2ncc(-c3cnn(C)c3)cc2C(=O)Nc2cccc(n2)-c2nncn21 [Compound 26, (S)-10-Methyl-5^5-(1-methyl-1H-pyrazol-4-yl)-1^4H-6-oxa-3-aza-2(2,6),5(3,2)-dipyridina-1(3,4)-triazolacyclodecaphan-4-one] | ≤ 100 | – |
| C#Cc1cnc2c(c1)C(=O)Nc1cccc(n1)-c1nncn1[C@@H](C)CCCO2 [Compound 34, (S)-5^5-Ethynyl-10-methyl-1^4H-6-oxa-3-aza-2(2,6),5(3,2)-dipyridina-1(3,4)-triazolacyclodecaphan-4-one] | 100 to 1000 | – |

More lines, now with the values ahead:

| IC50 [1] [nM] | IC50 (ASK1/MAP3K5) [nM] | SMILES |
| --- | --- | --- |
| – | ≤ 100 | C[C@H]1CCCOc2ncc(-c3cncnc3)cc2C(=O)Nc2cccc(n2)-c2nncn21 [Compound 21, (S)-10-Methyl-5^5-(pyrimidin-5-yl)-1^4H-6-oxa-3-aza-2(2,6),5(3,2)-dipyridina-1(3,4)-triazolacyclodecaphan-4-one] |
| ≤ 100 | ≤ 100 | C[C@H]1CCCOc2ncc(C3CN(C(=O)OC(C)(C)C)C3)cc2C(=O)Nc2cccc(n2)-c2nncn21 [Compound 46, tert-Butyl (S)-3-(10-methyl-4-oxo-1^4H-6-oxa-3-aza-2(2,6),5(3,2)-dipyridina-1(3,4)-triazolacyclodecaphane-5^5-yl)azetidine-1-carboxylate] |
| 100 to 1000 | ≤ 100 | COC(C)(C)c1cnc2c(c1)C(=O)Nc1cccc(n1)-c1nncn1[C@@H](C)CCCO2 [Compound 40, (S)-5^5-(2-Methoxypropan-2-yl)-10-methyl-1^4H-6-oxa-3-aza-2(2,6),5(3,2)-dipyridina-1(3,4)-triazolacyclodecaphan-4-one] |
| 100 to 1000 | ≤ 100 | C[C@@H]1CN(c2cnc3c(c2)C(=O)Nc2cccc(n2)-c2nncn2[C@@H](C)CCCO3)C[C@@H](C)N1 [Compound 14, (S)-5^5-((3R,5R)-3,5-Dimethylpiperazin-1-yl)-10-methyl-1^4H-6-oxa-3-aza-2(2,6),5(3,2)-dipyridina-1(3,4)-triazolacyclodecaphan-4-one] |
| 100 to 1000 | – | C[C@H]1CCCOc2ncc(S(C)(=O)=O)cc2C(=O)Nc2cccc(n2)-c2nncn21 [Compound 43, (S)-10-Methyl-5^5-(methylsulfonyl)-1^4H-6-oxa-3-aza-2(2,6),5(3,2)-dipyridina-1(3,4)-triazolacyclodecaphan-4-one] |
| 100 to 1000 | – | C[C@H]1CCCOc2ncc(-n3ccc(C(F)(F)F)n3)cc2C(=O)Nc2cccc(n2)-c2nncn21 [Compound 29, (S)-10-Methyl-5^5-(3-(trifluoromethyl)-1H-pyrazol-1-yl)-1^4H-6-oxa-3-aza-2(2,6),5(3,2)-dipyridina-1(3,4)-triazolacyclodecaphan-4-one] |
| 1000 to 10000 | – | C[C@@H]1CCCOc2ncc(-c3ccncc3)cc2C(=O)Nc2cccc(n2)-c2nncn21 [Compound 18, (R)-10-Methyl-5^5-(pyridin-4-yl)-1^4H-6-oxa-3-aza-2(2,6),5(3,2)-dipyridina-1(3,4)-triazolacyclodecaphan-4-one] |
| ≤ 100 | – | C[C@H]1CCCOc2ncc(C3CCN(C)CC3)cc2C(=O)Nc2cccc(n2)-c2nncn21 [Compound 16, (S)-10-Methyl-5^5-(1-methylpiperidin-4-yl)-1^4H-6-oxa-3-aza-2(2,6),5(3,2)-dipyridina-1(3,4)-triazolacyclodecaphan-4-one] |
